Series [1] has as its target T1, BChE (Homo sapiens, UniProt P06276).
T1 construct: purchased Cloud-Clone Corp. (via Biocom Africa (Pty) Ltd.)
Description: Enzyme kinetic study against BChE (Lineweaver-Burk and Dixon plots). The format is biochemical. The procedure:
The AChE and BChE enzyme kinetic studies were performed in triplicate in a 96-well plate following a procedure described in our previous study. Varying concentrations of 2a or 3c (0, 2.5, 3.5, and 5 μM) and AChI or BChI (0.1, 0.5, 2.5, and 5 mM) were used for the kinetic assays. The absorbances were measured after every 1 s for 10 s at a wavelength of 412 nm using a microplate spectrophotometer reader. The Lineweaver–Burk plots (plot of the inverse of velocity (1/v) against the inverse of the substrate concentration (1/[S])) were constructed.

The subject of the next series is A549 cells. Nature of the series: LPS-induced ROS production in A549 cells (H2DCF-DA). It counts as cell-based, human. The conditions noted are these: 10 μM compound, LPS 1 μg/mL, 24 h (Figure 9b). As for the experimental part: Mitochondrial ROS levels in Vero and A549 cell lines was measured using the 2′,7′-dichlorofluorescin diacetate (H2DCF-DA) (Sigma-Aldrich, St. Louis, MO, USA, Merck, Darmstadt, Germany), fluorescent probe. Cells (1 × 10^5) were seeded in 96 well plates and incubated overnight at 37 °C in 5% CO2. A minimum non-toxic concentration (10 μM) of compounds (2a and 3b) was added separately as treatment and further incubated for an hour, after which LPS (1 μg/mL) was added to induce the production of ROS. After 24 h of incubation, the media was aspirated, cells were rinsed with PBS, and followed by the addition of H2DCF-DA (10 μM) for 30 min in the dark. The absorbance of the fluorescence was measured using a microplate reader (VarioSkan Flash, Thermo Fisher Scientific, Finland) at 485 and 535 nm values of excitation and emission, respectively. Data was processed and analysed using ANOVA, which was followed by Duncan’s multiple comparison test.

Series [2] concerns the target T1, BChE. Description: biochemical. Particulars: mean ± SD of three independent experiments. The procedure:
The melting point values of the test compounds were recorded on a Thermocouple digital melting point apparatus (Mettler Toledo LLC, Columbus, OH, USA). The infrared (IR) spectra were recorded using the thin-film method on a Bruker VERTEX 70 FT-IR Spectrometer (Bruker Optics, Billerica, MA, USA) equipped with an ATR (diamond attenuated total reflectance) accessory. Merck kieselgel 60 (0.063–0.200 mm) (Merck KGaA, Frankfurt, Germany) was used as a stationary phase for column chromatography. The ^1H-NMR and ^13C-NMR spectra of the prepared compounds were obtained as deuterated dimethyl sulfoxide ((CD3)2SO) solutions using Agilent 500 MHz NMR spectrometer (Agilent Technologies, Oxford, UK) operating at 500 MHz and 125 MHz for ^1H and ^13C, respectively. The chemical shifts are quoted relative to tetramethylsilane (TMS) used as an internal reference standard (δ = 0.00 ppm) or a residual protonated solvent. The high-resolution mass spectra were recorded at an ionization potential of 70 eV using Micromass Autospec-TOF (double focusing high resolution) instrument (Waters Corp., Milford, MA, USA). The synthesis and analytical data for 2-amino-5-iodobenzamide (1) have been reported in our previous study. Recombinant human AChE (BioLegend) and BChE (Cloud-Clone Corp.) were purchased via Biocom Africa (Pty) Ltd. (Centurion, Pretoria, South Africa).
AChE and BChE were used to determine cholinesterase activities spectrophotometrically using […] as substrates, respectively, following a modification of the Ellman’s method, as described in our previous study, and the reactions were performed in triplicate at 37 °C in a 96-well plate. […] A multi-channel pipette was used for the addition of reagents to the wells.
A total of 8.0 μL of the test compound and 2.0 μL of BChE (0.02 mg/mL) was added to each of the designated wells of the 96-well plate, and the mixtures were incubated at room temperature for 30 min. Tris buffer (70 μL) was added to each well containing the reaction mixture and incubation was continued for a further 10 min at this temperature, which was followed by the addition of 10 μL solution of 5,5′-dithiobis-(2-nitrobenzoic acid) (DTNB) (3 mM in Tris buffer, 50 mM, pH 7.7) and butyrylcholine iodide (5 mM in Tris buffer, 50 mM, pH 7.7) to each well to initiate the reaction. […] The IC50 and standard deviation values using the Graph Pad Prism.

Series [3] can be described thus: Metal chelation study by UV-vis spectrometry. It counts as physicochemical. The conditions noted are these: room temperature. As for the experimental part: The metal chelating ability of compounds 2a and 3b toward Cu^2+ and Zn^2+ was evaluated by ultraviolet–visible (UV–Vis) spectrometry. A solution of the test compound in methanol (30 μM, final concentration) alone or in the presence of CuCl2 or ZnCl2 (30 μM, final concentration) was stirred at RT for 30 min. The absorption spectra were recorded at room temperature on a PerkinElmer UV/Vis spectrometer (Perkin Elmer, Inc., Midrand, Johannesburg, South Africa) at wavelengths ranging from 200 to 1200 nm.
The ability of compound 2a to chelate Cu^2+ or Zn^2+ was assessed using a UV–vis spectrophotometric assay with a wavelength in the region of 200–1200 nm. The absorption spectrum of 2a (Figure 2) acquired in methanol at room temperature is characterized by four discernible absorption bands, around λ 300, 500, 690, and 1000 nm, respectively. These bands are reduced to two distinct bands of different intensities in the presence of either CuCl2 or ZnCl2. […] A bathochromic shift of the band found around 500 nm in the spectrum of 2a to around 580 nm in the presence of ZnCl2 occurred with no broadening. 2-Aminobenzamide is known to bind the Cu(II) ion through the amino-N and amido-O atoms.

The next series deals with T2, β-secretase (Homo sapiens, UniProt P56817).
T2 construct: purchased Thermo Fisher Scientific Corporation; host or cells: baculovirus-expressed
Nature of the series: β-Secretase (BACE-1) inhibition assay. It counts as biochemical. The conditions noted are these: mean ± SD of three independent experiments. The procedure:
The β-secretase inhibitory activities of the test compounds were assayed in triplicates in 96-well plates using a recombinant baculovirus-expressed β-secretase and a specific substrate (Rh-[…]-Quencher), according to the manufacturer’s (Thermo Fisher Scientific Corporation, Johannesburg, Gauteng, South Africa) instructions, as described in our previous study. […] To each well, 2.0 μL human recombinant β-secretase (1.0 U/mL) was added to start the reaction and the reaction mixture was incubated for 60 min at room temperature. […] The IC50 and standard deviation values of both the test compounds and reference standard were calculated using the Graph Pad Prism.

Each structure is given as a SMILES string.

T1 sequence (P06276 29-602): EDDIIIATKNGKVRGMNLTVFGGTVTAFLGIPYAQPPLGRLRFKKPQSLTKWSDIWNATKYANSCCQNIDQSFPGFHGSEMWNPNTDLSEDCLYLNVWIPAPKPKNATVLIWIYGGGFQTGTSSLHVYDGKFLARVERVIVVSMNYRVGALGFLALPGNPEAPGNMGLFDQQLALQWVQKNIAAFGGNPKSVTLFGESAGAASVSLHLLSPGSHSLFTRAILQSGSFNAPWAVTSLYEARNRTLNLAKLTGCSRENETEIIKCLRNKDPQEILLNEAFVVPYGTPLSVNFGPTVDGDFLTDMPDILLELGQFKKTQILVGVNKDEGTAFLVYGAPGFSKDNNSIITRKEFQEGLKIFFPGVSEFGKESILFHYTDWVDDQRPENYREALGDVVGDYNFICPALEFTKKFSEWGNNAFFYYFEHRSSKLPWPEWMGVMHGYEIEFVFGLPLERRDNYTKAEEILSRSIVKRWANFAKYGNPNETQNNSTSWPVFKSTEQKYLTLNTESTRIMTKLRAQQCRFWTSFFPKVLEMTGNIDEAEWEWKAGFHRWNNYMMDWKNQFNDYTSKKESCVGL
T2 sequence (P56817 46-501): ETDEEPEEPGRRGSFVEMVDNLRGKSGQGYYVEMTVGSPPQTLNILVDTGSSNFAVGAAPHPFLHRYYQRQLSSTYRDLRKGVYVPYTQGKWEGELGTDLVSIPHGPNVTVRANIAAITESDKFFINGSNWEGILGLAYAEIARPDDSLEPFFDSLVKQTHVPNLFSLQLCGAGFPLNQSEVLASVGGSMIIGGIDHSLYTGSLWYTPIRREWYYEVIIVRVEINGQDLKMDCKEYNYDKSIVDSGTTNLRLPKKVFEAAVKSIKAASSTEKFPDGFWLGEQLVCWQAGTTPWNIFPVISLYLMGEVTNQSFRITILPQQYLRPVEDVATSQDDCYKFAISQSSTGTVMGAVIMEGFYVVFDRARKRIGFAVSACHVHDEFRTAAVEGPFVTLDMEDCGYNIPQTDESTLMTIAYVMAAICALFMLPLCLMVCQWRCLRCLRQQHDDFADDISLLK

Consider `NC(=O)c1cc(/C=C/c2ccccc2)ccc1N` [Compound 2a, (E)-2-Amino-5-styrylbenzamide], for which the “mode of inhibition BChE” value at BChE [1] is given as “mixed mode”. Moreover, at BChE [1] (read-out: Ki (Dixon plot) BChE), the Ki amounted to 2 µM. The ROS reduction result with A549 cells is given as “about 65%”. The IC50 against BChE [2] worked out at 4.7 ± 0.32 µM; against β-secretase, 15.8 ± 0.26 µM. Further, in series [3] (30 μM compound and 30 μM CuCl2 in methanol), the “chelation of Cu2+” value was “selective for Cu (II) ion”. The “chelation of Zn2+” value in series [3] (30 μM compound and 30 μM ZnCl2 in methanol) is reported as “relatively poor chelating ability”.
